Usually inhibition stands for the relative decrease from the control value, in per cent. As usually defined, the pIC50 is the negative decadic logarithm of the IC50, by convention in mol/L. The low end stands for a large IC50, the high end for a small IC50. The pEC50 is −log10 of the EC50, conventionally taken in molar units. A low value points to a high EC50.

Results on 20 compounds are retold here after patent US20080249075A1, “C11 Modified Retrosteroids as Progesterone Receptor Modulator Compounds” (Solvay Pharmaceuticals GmbH, priority 2007, published 2008).

This experiment has as its system T47D human breast carcinoma cells. As to the kind of experiment: cells. Particulars: for activation at 0.1 µM / inhibition at 0.1 µM / IC50 / EC50: Homo sapiens, T47D; for activation at 0.1 µM: 48 h, read-out: PS [100 nM] (% stimulation); for inhibition at 0.1 µM: read-out: PI [100 nM] (% inhibition); for IC50: read-out: pIC50 (converted); for EC50: read-out: pEC50 (converted); for PS [100 nM] (% stimulation): agonistic mode, alkaline phosphatase induction (100% = 1 nM Dydrogesterone); for PS [100 nM] (% stimulation) / PI [100 nM] (% inhibition): compound 100 nM; for PI [100 nM] (% inhibition): antagonistic mode, inhibition of alkaline phosphatase induction by 1 nM Dydrogesterone; for pIC50: antagonistic potency against 1 nM Dydrogesterone. It is filed as cell-based. Here is the method: The progesterone-dependent modulation of alkaline phosphatase expression was examined using T47D human breast carcinoma cells [Keydar et al., 1979]. The assay was performed as previously described by Di Lorenzo et al. (1991) with the modification of using Dydrogesterone as comparative progestin to determine the antagonistic and agonistic activity.
The cell line was purchased from CLS Cell Lines Service (Hildastrasse 21, D-69214 Eppelheim, Germany). In brief, the cells were plated in 96-well plates at 40,000 cells/well using the following growth medium: RPMI 1640 with: 10% FBS, 1 mM Sodium Pyruvat MEM, 10 mM Hepes, 0.01 mg/ml Bovine insulin, and 25 μg/ml Gentamycin. After 24 h of cultivation, the growth medium was replaced with medium containing 2% fetal bovine serum and the test compounds were added to each well to achieve the appropriate compound concentration: For determination of agonistic activity only the test compounds were added; for measurement of antagonistic activity the test compounds and additionally Dydrogesterone as standard progesterone agonist was added to a final concentration of 1 nM. After 48 h of cultivation, the medium was removed and the cells were washed with 200 μl of Dulbecco's phosphate-buffered saline without calcium and magnesium (PBS(−)). Then the cells were fixed with 3.7% formaldehyde in phosphate-buffered saline for 15 min at 22° C. After washing the cells with PBS, 100 μl of a […] (pNPP) solution (pNPP Liquid Substrate System; Sigma) was added to each well and incubated for 2 h at room temperature protected from light. The reaction was stopped with 100 μl 1N NaOH and the absorbance was measured with a spectrophotometer (Victor, Perkin Elmer) at 405 nm. The results are expressed as alkaline phosphatase induction (as 100% with 1 nM Dydrogesterone) or inhibition (against alkaline phosphatase induction by 1 nM Dydrogesterone) at a certain concentration of test compound.
% stimulation=(effect compound−basal)/(effect dydro 1 nM−basal)*100% inhibition of 1 nM Dydro=100*{1-[(effect compound−basal)/(effect dydro 1 nM−basal)]}
For each compound the % inhibition (PI) and % stimulation (PS), respectively, at a compound concentration of 100 nM was determined. For selected compounds, the corresponding values were measured for several different concentrations, and subsequently were plotted against the concentration of the test compound, and used to calculate the IC50 value (for the antagonistic potency; the IC50 value is the concentration (nM), required to reduce the maximal response by 50%) and EC50 values (for the agonistic potency; the EC50 value is the effective concentration (nM) that produced 50% of the maximum response), respectively.

As for `CC(=O)[C@H]1CC[C@H]2[C@@H]3C=CC4=CC(=O)CC[C@@]4(C)[C@@H]3[C@@H](OC(=O)NC(C)C)C[C@]12C` [Compound No. 1, Dydrogesterone-11β-yl isopropylcarbamate], the activation at 0.1 µM is -3%, the inhibition at 0.1 µM amounted to 46% and the IC50 was 158 nM.
`COc1ccc(NC(=O)O[C@H]2C[C@]3(C)[C@@H](C(C)=O)CC[C@H]3[C@@H]3C=CC4=CC(=O)CC[C@@]4(C)[C@@H]32)cc1` [Compound No. 11, (4-Methoxy-phenyl)-carbamic acid dydrogesterone-11β-yl ester]: the activation at 0.1 µM was found to be 0% and the inhibition at 0.1 µM turned out to be 39%.
Turning to `CCO[C@]1(C(C)=O)CC[C@H]2[C@@H]3C=CC4=CC(=O)CC[C@@]4(C)[C@@H]3[C@@H](OC(=O)Nc3cccc(OC)c3)C[C@@]21C` [Compound No. 12, (3-Methoxy-phenyl)-carbamic acid 17-ethoxy-dydrogesterone-11β-yl ester], the activation at 0.1 µM was 23%, the inhibition at 0.1 µM turned out to be 72% and the IC50 is 6.31 nM.
On to `CC(=O)[C@H]1CC[C@H]2[C@@H]3C=CC4=CC(=O)CC[C@@]4(C)[C@@H]3[C@@H](OC(=O)Nc3cccc(C(N)=O)c3)C[C@]12C` [Compound No. 14, (3-Carbamoyl-phenyl)-carbamic acid dydrogesterone-11β-yl ester], for which the activation at 0.1 µM is -1%, the inhibition at 0.1 µM was 38% and the IC50 was 50.1 nM.
On the same counts, the results for `COc1cccc(NC(=O)O[C@H]2C[C@]3(C)[C@@H](C(C)=O)CC[C@H]3[C@@H]3C=CC4=CC(=O)CC[C@@]4(C)[C@@H]32)c1` [Compound No. 15, (3-Methoxy-phenyl)-carbamic acid dydrogesterone-11β-yl ester] are -3%, 43% and 126 nM.
Consider `COc1ccc(C(=O)O[C@H]2C[C@]3(C)[C@@H](C(C)=O)CC[C@H]3[C@@H]3C=CC4=CC(=O)CC[C@@]4(C)[C@@H]32)cc1` [Compound No. 22, 4-Methoxy-benzoic acid dydrogesterone-11β-yl ester], for which the activation at 0.1 µM worked out at 29%, the inhibition at 0.1 µM amounted to 55%, the EC50 is 12.6 nM and the IC50 was 20 nM.
In the case of `CCO[C@]1(C(C)=O)CC[C@H]2[C@@H]3C=CC4=CC(=O)CC[C@@]4(C)[C@@H]3[C@@H](OC(=O)c3ccccc3)C[C@@]21C` [Compound No. 23, Benzoic acid 17-ethoxy-dydrogesterone-11β-yl ester], the activation at 0.1 µM came to 16%, the inhibition at 0.1 µM is 69% and the IC50 is 15.8 nM.
With `CCNC(=O)O/N=C/c1cccc(NC(=O)O[C@H]2C[C@]3(C)[C@@H](C(C)=O)CC[C@H]3[C@@H]3C=CC4=CC(=O)CC[C@@]4(C)[C@@H]32)c1` [Compound No. 33, [3-(N-Ethylcarbamoyl-oximino-formyl)-phenyl]-carbamic acid dydrogesterone-11β-yl ester], the activation at 0.1 µM stood at 56%, the inhibition at 0.1 µM was -29% and the EC50 is 200 nM.
As to `CC(=O)[C@H]1CC[C@H]2[C@@H]3C=CC4=CC(=O)CC[C@]4(C)[C@H]3C(OC(=O)Nc3ccc4ncccc4c3)C[C@]12C` (some centres unmarked) [compound 69, Quinolin-6-yl-carbamic aciddydrogesterone-11-yl ester], under “T47D cells”, the “PS [100 nM] (% stimulation)” value is 4.0%, the “PI [100 nM] (% inhibition)” value was 41.0% and the pIC50 stood at 7.2.
On the same counts, the results for `CC(=O)[C@H]1CC[C@H]2[C@@H]3C=CC4=CC(=O)CC[C@@]4(C)[C@@H]3C(OC(=O)Nc3ccc4c(c3)OCCO4)C[C@]12C` (some centres unmarked) [compound 70, (2,3-Dihydro-benzo[1,4]dioxin-6-yl)-carbamic aciddydrogesterone-11-yl ester] are 1.0%, 44.0% and 6.9.
As for `CC(=O)[C@H]1CC[C@H]2[C@@H]3C=CC4=CC(=O)CC[C@@]4(C)[C@@H]3C(OC(=O)Nc3cccc(OC(F)(F)F)c3)C[C@]12C` (some centres unmarked) [compound 74, (3-Trifluoromethoxy-phenyl)-carbamic acid dydrogesterone-11-yl ester], under “T47D cells”, the “PS [100 nM] (% stimulation)” value worked out at 89.0% and the “PI [100 nM] (% inhibition)” value was −23.0%. In addition, the pEC50 (agonistic potency, T47D cells) worked out at 6.3.
`CC(=O)[C@H]1CC[C@H]2[C@@H]3C=CC4=CC(=O)CC[C@@]4(C)[C@@H]3C(OC(=O)Nc3ccc(OC(F)F)cc3)C[C@]12C` (some centres unmarked) [compound 75, (4-Difluoromethoxy-phenyl)-carbamic acid dydrogesterone-11-yl ester]: under “T47D cells”, the “PS [100 nM] (% stimulation)” value is 0.0%, the “PI [100 nM] (% inhibition)” value was determined as 59.0% and the pIC50 is recorded as 6.9.
On the same counts, the results for `CC(=O)[C@H]1CC[C@H]2[C@@H]3C=CC4=CC(=O)CC[C@@]4(C)[C@@H]3C(OC(=O)Nc3ccc(C)c(Br)c3)C[C@]12C` (some centres unmarked) [compound 76, (3-Bromo-4-methyl-phenyl)-carbamic acid dydrogesterone-11-yl ester] are 4.0%, 67.0% and 7.3.
Take `CC(=O)[C@H]1CC[C@H]2[C@@H]3C=CC4=CC(=O)CC[C@@]4(C)[C@@H]3C(OC(=O)Nc3ccc4cc[nH]c4c3)C[C@]12C` (some centres unmarked) [compound 88, (1H-Indol-6-yl)-carbamic aciddydrogesterone-11-yl ester]: under “T47D cells”, the “PS [100 nM] (% stimulation)” value amounted to 0.0% and the “PI [100 nM] (% inhibition)” value worked out at 48.0%.
For `CSc1ccc(NC(=O)OC2C[C@]3(C)[C@@H](C(C)=O)CC[C@H]3[C@@H]3C=CC4=CC(=O)CC[C@@]4(C)[C@H]23)cc1` (some centres unmarked) [compound 94, (4-Methylsulfanyl-phenyl)-carbamic acid dydrogesterone-11-yl ester], for the setting “T47D cells”, the “PS [100 nM] (% stimulation)” value came to 1.0%, the “PI [100 nM] (% inhibition)” value worked out at 61.0% and the pIC50 is 7.0.
Regarding `CC(=O)Nc1cccc(NC(=O)OC2C[C@]3(C)[C@@H](C(C)=O)CC[C@H]3[C@@H]3C=CC4=CC(=O)CC[C@@]4(C)[C@H]23)c1` (some centres unmarked) [compound 95, (3-Acetylamino-phenyl)-carbamicacid dydrogesterone-11-yl ester], under “T47D cells”, the “PS [100 nM] (% stimulation)” value was determined as 1.0%, the “PI [100 nM] (% inhibition)” value is listed as 50.0% and the pIC50 is listed as 6.8.
Take `CC(=O)[C@H]1CC[C@H]2[C@@H]3C=CC4=CC(=O)CC[C@@]4(C)[C@@H]3C(OC(=O)Nc3ccc4c(c3)S(=O)(=O)C=C4)C[C@]12C` (some centres unmarked) [compound 98, (1,1-Dioxo-1H-1lambda*6*-benzo[b]thiophen-6-yl)-carbamicacid dydrogesterone-11-yl ester]: for the setting “T47D cells”, the “PS [100 nM] (% stimulation)” value is recorded as 1.0%, the “PI [100 nM] (% inhibition)” value is reported as 61.0% and the negative logarithm of the IC50 (pIC50) is reported as 7.0.
On the same counts, the results for `CC(=O)[C@H]1CC[C@H]2[C@@H]3C=CC4=CC(=O)CC[C@@]4(C)[C@@H]3C(OC(=O)Nc3cccc(N4CCCC4=O)c3)C[C@]12C` (some centres unmarked) [compound 100, [3-(2-Oxo-pyrrolidin-1-yl)-phenyl]-carbamic aciddydrogesterone-11-yl ester] are 1.0%, 45.0% and 6.6.
On the same counts, the results for `CC(=O)[C@H]1CC[C@H]2[C@@H]3C=CC4=CC(=O)CC[C@@]4(C)[C@@H]3C(OC(=O)Nc3cccc(-n4cccc4)c3)C[C@]12C` (some centres unmarked) [compound 103, (3-Pyrrol-1-yl-phenyl)-carbamicacid dydrogesterone-11-yl ester] are 21.0%, 52.0% and 7.2.
The matching figures for `COc1cc(NC(=O)OC2C[C@]3(C)[C@@H](C(C)=O)CC[C@H]3[C@@H]3C=CC4=CC(=O)CC[C@@]4(C)[C@H]23)cc(-n2cnnn2)c1` (some centres unmarked) [compound 104, (3-Methoxy-5-tetrazol-1-yl-phenyl)-carbamic aciddydrogesterone-11-yl ester]: 1.0%, 45.0% and 6.9.
